{"source": "PubChem BioAssay (NCI)", "note": "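Dose response: 5 concentrations. Exposure: 48 h. Format: 96-well plates. Endpoint: linear interpolation; highest concentration if not reached. GI50 = concentration required for 50% inhibition of growth. TGI: total growth inhibition.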", "data": [{"tested_on": "DU-145 prostate", "test": "growth of human tumour cells (NCI), 48 h", "units": {"GI50": "µM", "TGI": "µM"}, "values": [{"smiles": "CN1CCN(CCCOc2ccc3nc(Nc4ccc(Cl)c(C(F)(F)F)c4)ccc3c2)CC1", "GI50": 11.9, "TGI": 24.3}, {"smiles": "CC(C)n1nc(-c2cc3cc(O)ccc3[nH]2)c2c(N)ncnc21", "GI50": 0.498, "TGI": 12}, {"smiles": "CCCCC(O)(c1ccc(Cl)cc1)C(CN1CCOCC1)c1ccc(Cl)cc1", "note": "(centres undefined)", "GI50": 15.7, "TGI": 29.8}, {"smiles": "NCC1Nc2ccccc2[C@@H](O)C1O", "note": "(some centres undefined)", "TGI": "> 100"}, {"smiles": "OC[C@H]1CCCC1O", "note": "(some centres undefined)", "TGI": "> 100"}, {"smiles": "Cc1cccc(N2CCN(C(=S)c3ccc4c(c3)OCO4)CC2)c1", "GI50": 2.34, "TGI": "> 100"}, {"smiles": "Cc1cc(C(=O)Nc2ncc(Cc3cccc(C(F)(F)F)c3)s2)c2ccccc2n1", "GI50": 3.47, "TGI": "> 100"}, {"smiles": "O=C(N/N=C/c1ccc(Cl)cc1)c1ccc(C(F)(F)F)nc1Nc1cccc(C(F)(F)F)c1", "GI50": 2.33, "TGI": 10.8}, {"smiles": "COc1cc2ncnc(Nc3ccc(C)c(O)c3)c2cc1OC", "GI50": 7.91, "TGI": "> 25"}, {"smiles": "O=C1OC(C(O)CO)C(=O)C1=O", "note": "(centres undefined)", "GI50": 1720, "TGI": 3130}, {"smiles": "COC(=O)C1=CNC=C(C(=O)OC)C1C1=CC(=O)C(C)=CC1=O", "GI50": 16, "TGI": 30.3}, {"smiles": "C=C1C(=O)O[C@H]2[C@H]1CC/C(COC(=O)C(=O)c1cn(Cc3ccccc3)c3ccccc13)=C\\CC[C@@]1(C)O[C@@H]21", "GI50": 2.96, "TGI": 11.3}, {"smiles": "Cc1cc(S(=O)(=O)Nc2nnc(-c3ccccc3)c(-c3ccccc3)n2)c(SCC(N)=O)cc1Cl", "GI50": 55.7, "TGI": "> 100"}, {"smiles": "COc1ccc(/C=C/c2ccnc3ccccc23)c(OC)c1", "TGI": "> 10"}, {"smiles": "Cc1ccc(C(=O)CN(/C=C/C(=O)C(F)(F)F)c2ccc(S(N)(=O)=O)cc2)cc1", "GI50": "> 100", "TGI": "> 100"}, {"smiles": "COC(C(O)CO)C(O)C(O)C(=O)NNc1ccccc1", "note": "(centres undefined)", "TGI": "> 100"}, {"smiles": "NS(=O)(=O)c1ccc(NC2(C(=O)O)CCCC2)cc1", "TGI": "> 100"}, {"smiles": "N=C1C(c2nc3ccccc3s2)=C(O)CN1c1cc(C(F)(F)F)ccc1Cl", "GI50": 25.8, "TGI": "> 100"}, {"smiles": "CC(=O)CSCc1ccccn1", "TGI": "> 100"}, {"smiles": "COc1ccccc1CNCCCN1C(=O)c2ccc3c4c(ccc(c24)C1=O)C(=O)N(CCCOCCCCOCCCN)C3=O", "GI50": 1.78, "TGI": 3.44}, {"smiles": "CCOC(=O)[C@@H](N)CCC(=O)N[C@@H](CSCc1ccccc1)C(=O)N[C@@H](C(=O)OCC)c1ccccc1", "GI50": 38.3, "TGI": "> 100"}, {"smiles": "COc1ccc(Nc2c3ccccc3nc3occc23)cc1", "GI50": 14.2, "TGI": "> 100"}, {"smiles": "COc1cc(/C=C/c2cc(/C=C/c3ccc(O)c(OC)c3)n(C(=O)Nc3ccc(F)c(Cl)c3)n2)ccc1O", "GI50": 0.419, "TGI": 1.55}, {"smiles": "CCCCCCCC/C=C/CCCCCCCC(=O)OC[C@H]1O[C@@H](n2ccc(N)nc2=O)C(F)(F)[C@@H]1O", "GI50": "< 0.019", "TGI": "> 46.2"}, {"smiles": "NS(=O)(=O)c1ccc(N=Nc2c(O)[nH]c3ccc(-c4cnco4)cc23)cc1", "GI50": 24.4, "TGI": "> 25"}, {"smiles": "Clc1ccc(C2=Nn3c(COc4ccccc4Cl)nnc3SC2)c(Cl)c1", "GI50": 19.8, "TGI": 86.1}, {"smiles": "COc1cc2c3c(n(CCCNC(=O)OCC4c5ccccc5-c5ccccc54)c(=O)c2cc1OC)-c1cc2c(cc1/C3=C\\CCNC(=O)OCC1c3ccccc3-c3ccccc31)OCO2", "GI50": "> 42.2", "TGI": "> 50"}, {"smiles": "N#C/C(=C1C=C(Br)/C(=N\\O)C=C\\1Cl)c1cccc2ccccc12", "TGI": 12.6}, {"smiles": "COc1cc2nc3cc([N+](=O)[O-])ccc3c(NCCCNCCO)c2cc1OC", "GI50": 0.194, "TGI": 0.645}, {"smiles": "COC(=O)[C@@H](C)CNS(=O)(=O)N(c1cc(C(F)(F)F)cc(C(F)(F)F)c1)C1CCN(Cc2ccc(F)cc2)CC1", "GI50": 13.4, "TGI": 27.4}, {"smiles": "C=C1C(=O)O[C@@H]2/C=C(\\C)CC/C=C(/COC(C)=O)C[C@@H](OC(C)=O)[C@@H]12", "TGI": 19.2}, {"smiles": "COC(=O)[C@H](C)NC(=O)NC(=O)NC(=O)CI", "GI50": 15.4, "TGI": 29.2}, {"smiles": "CCOC(=O)c1c(C)n(Cc2ccc(Cl)cc2Cl)c2c1c(CN(C)C)c(O)c1[nH]cnc12", "GI50": 17.2, "TGI": 30.9}, {"smiles": "CN1C/C=C\\CCOc2cccc(c2)-c2ccnc(n2)Nc2cccc(c2)C1", "GI50": 0.0562, "TGI": 6}, {"smiles": "CN1C(=O)c2cccc3cc([N+](=O)[O-])cc(c23)C1=O", "TGI": "> 10"}, {"smiles": "Oc1ccccc1C(Sc1nc2ccccc2s1)Sc1nc2ccccc2s1", "TGI": "> 100"}, {"smiles": "COC1=C(C)C(=O)c2c(c(COC(N)=O)c3n2CC2C3N2C)C1=O", "note": "(centres undefined)", "TGI": 0.0542}, {"smiles": "COc1ccc(Cn2cc3c(c2-c2ccccc2)CC(C)(C)c2cnoc2-3)cc1", "GI50": 1.78, "TGI": 7.5}, {"smiles": "CN1c2ccc(Cl)cc2C(=O)NC1c1ccc([N+](=O)[O-])s1", "note": "(centres undefined)", "TGI": 45.1}, {"smiles": "c1cc(CNC23CC4CC(CC(C4)C2)C3)cc(C[N+](Cc2cccc(CNC34CC5CC(CC(C5)C3)C4)c2)(Cc2cccc(CNC34CC5CC(CC(C5)C3)C4)c2)Cc2cccc(CNC34CC5CC(CC(C5)C3)C4)c2)c1", "note": "(centres undefined)", "GI50": 6.16, "TGI": 19.3}, {"smiles": "Oc1cccnc1CN1CCCCC1", "TGI": "> 100"}]}, {"tested_on": "MALME-3M melanoma", "test": "growth of human tumour cells (NCI), 48 h", "units": {"GI50": "µM", "TGI": "µM"}, "values": [{"smiles": "CN1CCN(CCCOc2ccc3nc(Nc4ccc(Cl)c(C(F)(F)F)c4)ccc3c2)CC1", "GI50": 11.3, "TGI": 28.4}, {"smiles": "CC(C)n1nc(-c2cc3cc(O)ccc3[nH]2)c2c(N)ncnc21", "GI50": 0.0269, "TGI": 0.265}, {"smiles": "CCCCC(O)(c1ccc(Cl)cc1)C(CN1CCOCC1)c1ccc(Cl)cc1", "note": "(centres undefined)", "GI50": 15.6, "TGI": 33.8}, {"smiles": "NCC1Nc2ccccc2[C@@H](O)C1O", "note": "(some centres undefined)", "TGI": "> 100"}, {"smiles": "OC[C@H]1CCCC1O", "note": "(some centres undefined)", "TGI": "> 100"}, {"smiles": "Cc1cc(C(=O)Nc2ncc(Cc3cccc(C(F)(F)F)c3)s2)c2ccccc2n1", "GI50": 3.51, "TGI": "> 100"}, {"smiles": "O=C(N/N=C/c1ccc(Cl)cc1)c1ccc(C(F)(F)F)nc1Nc1cccc(C(F)(F)F)c1", "GI50": 3.86, "TGI": 23}, {"smiles": "COc1cc2ncnc(Nc3ccc(C)c(O)c3)c2cc1OC", "GI50": "> 25", "TGI": "> 25"}, {"smiles": "O=C1OC(C(O)CO)C(=O)C1=O", "note": "(centres undefined)", "GI50": 2070, "TGI": 4870}, {"smiles": "COC(=O)C1=CNC=C(C(=O)OC)C1C1=CC(=O)C(C)=CC1=O", "GI50": 14.1, "TGI": 27.5}, {"smiles": "C=C1C(=O)O[C@H]2[C@H]1CC/C(COC(=O)C(=O)c1cn(Cc3ccccc3)c3ccccc13)=C\\CC[C@@]1(C)O[C@@H]21", "GI50": 2.08, "TGI": 4.39}, {"smiles": "Cc1cc(S(=O)(=O)Nc2nnc(-c3ccccc3)c(-c3ccccc3)n2)c(SCC(N)=O)cc1Cl", "GI50": 30.2, "TGI": "> 100"}, {"smiles": "COc1ccc(/C=C/c2ccnc3ccccc23)c(OC)c1", "TGI": "> 10"}, {"smiles": "Cc1ccc(C(=O)CN(/C=C/C(=O)C(F)(F)F)c2ccc(S(N)(=O)=O)cc2)cc1", "GI50": "> 100", "TGI": "> 100"}, {"smiles": "Clc1nc(Cl)c(Cl)c(-c2ccccc2)n1", "TGI": 53.7}, {"smiles": "COC(C(O)CO)C(O)C(O)C(=O)NNc1ccccc1", "note": "(centres undefined)", "TGI": "> 100"}, {"smiles": "NS(=O)(=O)c1ccc(NC2(C(=O)O)CCCC2)cc1", "TGI": "> 100"}, {"smiles": "CC(=O)CSCc1ccccn1", "TGI": 9.99}, {"smiles": "CCOC(=O)[C@@H](N)CCC(=O)N[C@@H](CSCc1ccccc1)C(=O)N[C@@H](C(=O)OCC)c1ccccc1", "GI50": 19.7, "TGI": 36.2}, {"smiles": "COc1ccc(Nc2c3ccccc3nc3occc23)cc1", "GI50": 2.31, "TGI": 34.3}, {"smiles": "COc1cc(/C=C/c2cc(/C=C/c3ccc(O)c(OC)c3)n(C(=O)Nc3ccc(F)c(Cl)c3)n2)ccc1O", "GI50": 1.05, "TGI": 2.48}]}]}
